Data reported in patent US10857160B2, “Oil-in-water nanoemulsion composition of clobetasol” (LABORATORIOS SALVAT, S.A., priority 2017, dated 2020).

Test system: normotensive albino New Zealand rabbits
Assay: Study of effect on intraocular pressure (IOP)
Type: in vivo, rabbit
Conditions: intra-cameral administration, dexamethasone 0.1% (positive control)
Method: Control samples: • Positive control: dexamethasone 0.1%. • Negative control: 0.9% sodium chloride saline solution Material and Method • The laboratory animals used were normotensive albino New Zealand rabbits. The rabbits were adapted to periods of light/dark (12/12 hours) needed to adjust and maintain stable the diurnal cycle of the intraocular pressure (IOP). • Rabbits were distributed in different groups: the positive control group (positive control sample), the negative control group (negative control sample) and two test groups (two test samples). • The treatment involved the injection of dexamethasone into the anterior chamber, meanwhile for the rest of groups; each animal was topically instilled, in each eye with the control sample or the test composition 4 times a day for 15 days. • Measurement of IOP of the groups was performed twice a day. After the instillation in each animal, it was observed the possibility of adverse effects of the respective compound on the ocular surface. Results

C[C@@H]1C[C@H]2[C@@H]3CCC4=CC(=O)C=C[C@]4(C)[C@@]3(F)[C@@H](O)C[C@]2(C)[C@@]1(O)C(=O)CO [dexamethasone]
elevation of the intraocular pressure: statistically significant elevation
